Consider 12 compounds from US5446057A, “Substituted tetrahydropyridine and piperidine carboxylic acids as muscarinic antagonists” (priority 1993, dated 1995).

SMILES strings stand for the structures.

Data set [1] concerns M3 receptors. The following applies: literature; cited from earlier work.
Data set [2] concerns the target T1, m2 receptor (Homo sapiens, UniProt P08172).
T1 construct: expressed in transfected cells; host or cells: CHO cells (membranes)
T1 sequence (P08172 1-466): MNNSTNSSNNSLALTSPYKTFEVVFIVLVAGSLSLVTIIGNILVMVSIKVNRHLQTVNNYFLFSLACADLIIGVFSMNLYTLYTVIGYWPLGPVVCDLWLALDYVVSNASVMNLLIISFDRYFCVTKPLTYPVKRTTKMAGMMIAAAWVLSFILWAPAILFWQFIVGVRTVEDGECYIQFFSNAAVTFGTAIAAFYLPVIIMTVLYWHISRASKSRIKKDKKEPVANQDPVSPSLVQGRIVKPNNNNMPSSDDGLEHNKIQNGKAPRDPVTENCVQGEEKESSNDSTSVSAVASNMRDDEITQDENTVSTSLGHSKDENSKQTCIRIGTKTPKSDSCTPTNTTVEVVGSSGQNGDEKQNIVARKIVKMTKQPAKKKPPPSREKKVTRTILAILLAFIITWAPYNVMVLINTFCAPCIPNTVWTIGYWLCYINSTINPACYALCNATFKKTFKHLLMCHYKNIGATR
Nature of the data set: [3H]-NMS receptor binding using membranes from CHO cells expressing cloned human muscarinic receptor m2. Conditions: [3H]-NMS 100 pM, pH 7.4, 120 minutes at 25° C.
Procedure: (§1) [^3 H]-N-methylscopolamine ([^3 H]-NMS) Receptor Binding Using Membranes From Chinese Hamster Ovary (CHO) Cells Selectively Expressing One of the Five Cloned Human Muscarinic Receptors
(§2) Following membrane harvest and storage at -80° C., aliquots of membranes (approximately 10-40 μg protein) are added to 2 mL of 10 mM sodium potassium phosphate buffer, pH 7.4, containing 100 pM [^3 H]-NMS; (78.9 Ci/mmol) and the appropriate test compound. Nonspecific binding is defined as that unaffected by the inclusion of 1 μM atropine. The reaction is initiated by the addition of the membranes and allowed to proceed for 120 minutes at 25° C. with shaking. Termination of the incubation is achieved by rapid vacuum filtration through GF/B Whatman filters using a Brandel Cell Harvester with the filters being washed three times with 5 mL ice-chilled buffer. 10 mL of Beckman Ready Gel scintillation cocktail are added to the filters in vials and the samples are allowed to set overnight before vortexing and counting in a Beckman 800 scintillation counter. IC50 values are calculated using a logit equation.

In data set [3] the target is T2, m4 receptor (Homo sapiens, UniProt P08173).
T2 construct: expressed in transfected cells; host or cells: CHO cells (membranes)
T2 sequence (P08173 1-479): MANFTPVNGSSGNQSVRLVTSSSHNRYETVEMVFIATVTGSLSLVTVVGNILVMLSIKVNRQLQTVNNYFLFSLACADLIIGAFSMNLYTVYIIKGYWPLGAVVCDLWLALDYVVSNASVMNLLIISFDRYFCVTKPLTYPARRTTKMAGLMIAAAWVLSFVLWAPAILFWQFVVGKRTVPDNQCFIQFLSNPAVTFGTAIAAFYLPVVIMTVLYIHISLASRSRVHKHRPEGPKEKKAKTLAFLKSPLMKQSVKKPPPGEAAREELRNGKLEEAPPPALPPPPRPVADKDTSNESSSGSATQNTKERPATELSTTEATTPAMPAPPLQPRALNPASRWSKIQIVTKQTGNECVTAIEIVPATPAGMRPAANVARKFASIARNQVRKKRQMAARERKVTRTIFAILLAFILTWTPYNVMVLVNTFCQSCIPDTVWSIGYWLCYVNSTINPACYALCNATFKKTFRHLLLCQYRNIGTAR
The data set can be described thus: [3H]-NMS receptor binding using membranes from CHO cells expressing cloned human muscarinic receptor m4. The following applies: [3H]-NMS 100 pM, pH 7.4, 120 minutes at 25° C.
Procedure: as §1, §2

In data set [4] the test system is M2 receptors. Conditions: literature; cited from earlier work.
In data set [5] the test system is patients with effort myocardial ischemia. The following applies: cited from earlier work.
The target in data set [6] is T3, m1 receptor (Homo sapiens, UniProt P11229).
T3 construct: expressed in transfected cells; host or cells: CHO cells (membranes)
T3 sequence (P11229 1-460): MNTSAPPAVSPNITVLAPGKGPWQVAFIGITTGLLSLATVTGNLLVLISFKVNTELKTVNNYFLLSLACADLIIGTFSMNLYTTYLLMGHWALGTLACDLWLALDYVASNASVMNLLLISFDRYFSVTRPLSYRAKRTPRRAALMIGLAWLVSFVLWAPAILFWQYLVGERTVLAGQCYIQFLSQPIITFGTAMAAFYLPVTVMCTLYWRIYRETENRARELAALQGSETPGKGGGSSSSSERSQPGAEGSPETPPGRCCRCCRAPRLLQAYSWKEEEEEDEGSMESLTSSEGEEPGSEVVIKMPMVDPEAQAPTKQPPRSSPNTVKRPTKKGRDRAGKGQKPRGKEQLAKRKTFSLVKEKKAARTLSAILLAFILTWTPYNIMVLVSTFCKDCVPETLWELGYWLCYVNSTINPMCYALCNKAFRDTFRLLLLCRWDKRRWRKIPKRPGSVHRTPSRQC
Nature of the data set: [3H]-NMS receptor binding using membranes from CHO cells expressing cloned human muscarinic receptor m1. The following applies: [3H]-NMS 100 pM, pH 7.4, 120 minutes at 25° C.
Procedure: as §1, §2

Data set [7] has as its target m3 receptor (Homo sapiens, UniProt P20309). Nature of the data set: [3H]-NMS receptor binding using membranes from CHO cells expressing cloned human muscarinic receptor m3. The following applies: [3H]-NMS 100 pM, pH 7.4, 120 minutes at 25° C.
Procedure: as §1, §2
In data set [8] the target is T4, m5 receptor (Homo sapiens, UniProt P08912).
T4 construct: expressed in transfected cells; host or cells: CHO cells (membranes)
T4 sequence (P08912 1-532): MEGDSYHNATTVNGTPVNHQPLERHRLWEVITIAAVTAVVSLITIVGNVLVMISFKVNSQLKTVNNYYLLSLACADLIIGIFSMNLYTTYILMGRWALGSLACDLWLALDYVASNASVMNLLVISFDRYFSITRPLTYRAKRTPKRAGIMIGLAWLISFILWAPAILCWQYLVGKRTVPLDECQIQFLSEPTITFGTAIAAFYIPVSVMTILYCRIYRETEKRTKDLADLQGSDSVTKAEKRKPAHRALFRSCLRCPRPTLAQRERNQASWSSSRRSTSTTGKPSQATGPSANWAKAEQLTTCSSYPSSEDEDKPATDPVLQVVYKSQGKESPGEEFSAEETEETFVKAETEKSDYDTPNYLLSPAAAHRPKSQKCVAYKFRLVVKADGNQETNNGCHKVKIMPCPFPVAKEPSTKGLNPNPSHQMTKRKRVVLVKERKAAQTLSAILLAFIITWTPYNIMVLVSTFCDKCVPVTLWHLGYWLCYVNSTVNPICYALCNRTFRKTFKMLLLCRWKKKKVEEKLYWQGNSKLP
The data set can be described thus: [3H]-NMS receptor binding using membranes from CHO cells expressing cloned human muscarinic receptor m5. Conditions: [3H]-NMS 100 pM, pH 7.4, 120 minutes at 25° C.
Procedure: as §1, §2

For data set [9] the following is noted: urinary incontinence; cited from earlier work.
Data set [10] has as its target T5, Hm1 (Homo sapiens, UniProt P11229).
T5 construct: expressed in transfected cells; host or cells: CHO Hm1 cells
T5 sequence (P11229 1-460): T3 sequence (P11229 1-460)
The class given is cell-based.
Procedure: CHO Hm1, Hm3, or Hm5 cells are grown at 37° C. with 5% CO2 in Dulbecco's modified Eagle's medium (DMEM) supplemented with 10% fetal bovine serum and 1% nonessential amino acids. […] After 48 hours, the medium is aspirated and the cells are washed 2 times with 1 mL MEM containing 10 mM LiCl. 0.5 mLMEM/LiCl then is added to each well and allowed to incubate at 37° C. for at least 15 minutes. […] For antagonist experiments, the appropriate antagonist is added simultaneously with carbachol (3 μM for m1, 5 μM for m3, and 3 μM for m5). After waiting at least 15 minutes, the TCA extract is applied to Dowex-formate columns (Biorad AG 1-X8 resin, formate form, 100-200 mesh). The wells are rinsed with 0.5 mL distilled H2 O and also applied to the columns. The columns are washed 4 times with 3 mL 5 mMmyo-inositol and then total [^3 H]-inositol phosphates are eluted into vials with two 2 mL washes of 1 mM ammonium formate containing 0.1M formic acid. Beckman Ready Gel scintillation cocktail (10 mL) is added and the samples counted in a Beckman 2800 scintillation counter. The efficacy of agonists is estimated from the maximal effect of the compounds on PI turnover (expressed as a percent of the stimulation produced by carbachol (1 mM)). EC50 and IC50 values are also calculated for both agonists and antagonists, respectively.

m3 receptor, sequence (P20309 whole entry): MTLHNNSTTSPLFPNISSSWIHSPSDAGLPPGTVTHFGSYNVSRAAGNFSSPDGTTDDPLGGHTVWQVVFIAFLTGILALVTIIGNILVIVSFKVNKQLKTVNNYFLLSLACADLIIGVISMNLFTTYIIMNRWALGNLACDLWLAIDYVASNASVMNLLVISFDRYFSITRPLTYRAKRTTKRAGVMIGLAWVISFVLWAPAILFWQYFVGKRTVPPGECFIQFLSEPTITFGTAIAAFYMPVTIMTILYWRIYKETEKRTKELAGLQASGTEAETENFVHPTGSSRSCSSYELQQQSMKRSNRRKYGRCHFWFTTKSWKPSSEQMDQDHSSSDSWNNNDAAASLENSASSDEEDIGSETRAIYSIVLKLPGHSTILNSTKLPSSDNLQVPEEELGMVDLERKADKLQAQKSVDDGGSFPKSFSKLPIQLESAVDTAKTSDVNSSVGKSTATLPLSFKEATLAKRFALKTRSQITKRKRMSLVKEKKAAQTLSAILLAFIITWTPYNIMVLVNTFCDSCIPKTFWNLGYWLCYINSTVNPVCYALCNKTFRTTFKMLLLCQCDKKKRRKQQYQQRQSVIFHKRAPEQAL

As for `C[N+]1(C)CCC(OC(=O)C(c2ccccc2)c2ccccc2)CC1` [Example 4-DAMP, 4-diphenylacetoxy-N-methylpiperidine methobromide], the “affinity for M3 receptors” value in [1] is “high affinity”.
The term IC50 denotes the concentration at which inhibition is half-maximal. Regarding `CCN1CCC(c2ccccc2)=C(C(=O)OC(C)C)C1` [Example 4, 1-Ethyl-1,2,5,6-tetrahydro-4-phenyl-3-pyridinecarboxylic acid, 1-methylethyl ester], the results for the concentration for half-maximal inhibition (IC50) in data set [2] and in data set [3] were 0.347 µM and 0.643 µM, respectively.
Consider `CCN(CC)CC1CCCCN1CC(=O)N1c2ccccc2C(=O)Nc2cccnc21` (stereo not shown) [AF-DX 116], for which the “affinity for M2 receptors” value in [4] is on record as “high affinity”.
Turning to `CN1CCN(CC(=O)N2c3ccccc3C(=O)Nc3cccnc32)CC1` [pirenzepine], the exercise tolerance entry in data set [5] is “improve exercise tolerance”.
For the compound `COc1ccccc1CNCCCCCCNCCCCCCCCNCCCCCCNCc1ccccc1OC` [methoctramine], in data set [4], the “affinity for M2 receptors” value is recorded as “high affinity”.
For the compound `O[Si](CCCN1CCCCC1)(c1ccccc1)C1CCCCC1` (stereo not shown) [hexahydrosiladifenidol], the “affinity for M3 receptors” value in data set [1] is “high affinity”.
`COC(=O)C1=C(C)CCN(C)C1` [E, 1,4-Dimethyl-1,2,5,6-tetrahydro-3-pyridinecarboxylic acid, methyl ester]: the half-inhibitory concentration (IC50) was 61 µM in data set [6]; 10.4 µM in data set [2]; 68 µM in data set [7]; greater than 50 µM in data set [3]; 73.8 µM in data set [8].
As for `CCN(CC)CC#CCOC(=O)C(O)(c1ccccc1)C1CCCCC1` (stereo not shown) [oxybutynin], the “side effects limiting use” value in data set [9] was “mydriasis, dry mouth”.
`CCN1CCC(c2ccccc2)=C(C(=O)N(C)C)C1` [C, 1-Ethyl-1,2,5,6-tetrahydro-4-phenyl-N,N-dimethyl-3-pyridinecarboxamide]: the IC50 in data set [6] was found to be 5.01 µM; in data set [2] it was 12.3 µM; in data set [7], 8.99 µM; in data set [3], 13.5 µM; in data set [8] it was 6.08 µM. Moreover, in data set [10], the “muscarinic antagonism (in words)” value is recorded as “potent antagonists”.
Take `CCN1CC=C(c2ccccc2)C(C(=O)OCCc2ccc(Cl)cc2)C1` (stereo not shown) [Example 16, 1-Ethyl-1,2,3,6-tetrahydro-4-phenyl-3-pyridinecarboxylic acid, 2-(4-chlorophenyl)ethyl ester]: the IC50 turned out to be 1.29 µM in [2] and 1.85 µM in [3].
Regarding `CCCCC1=C(C(=O)OC)CN(CCC)CC1` [F, 1-Propyl-1,2,5,6-tetrahydro-4-butyl-3-pyridinecarboxylic acid, methyl ester], the IC50 in [6] was 17.5 µM; in [2] it was 5.34 µM; in data set [7] it was 14.9 µM; in [3], 50.7 µM; in data set [8], 41.2 µM.
As for `CCN1CCC(c2ccccc2)=C(C(=O)NC)C1` [D, 1-Ethyl-1,2,5,6-tetrahydro-4-phenyl-N-methyl-3-pyridinecarboxamide], the 50% inhibitory concentration (IC50) stood at 21.1 µM in [6]; 34.8 µM in [2]; 38.7 µM in [7]; 73.1 µM in [3]; 49.1 µM in data set [8].
